As usually defined, the IC50 is the concentration at which inhibition is half-maximal. High values mean lower potency, low ones higher potency.

One series addresses T1, purified RT from HIV-1 (Human immunodeficiency virus type 1 group M subtype B, UniProt P04585).
T1 construct: purified RT from HIV-1; made in house; host or cells: E. coli
The series is described as follows: Inhibition of Reverse Transcriptase (3H-thymidine-5'-triphosphate incorporation, 18mer oligonucleotide primer). The class given is biochemical. Conditions: concentration causing 50% inhibition of the RT activity; HIV-1 RT expressed in E. coli. Here is the method: The screening test system comprises the purified RT from HIV-1 which was expressed by genetic engineering methods in E. coli as well as the components of the initiation complex and site complementary 18mer oligonucleotide as the primer. The ^3 H!-thymidine-5'-triphosphate incorporation was measured by counting in a β counter. The IC50 value is given in the following table for the investigated compounds. This value corresponds to that concentration of the test substance which causes a 50% inhibition of the RT activity.
The compound `Cc1cc(C)nc(C23SCCN2C(=O)c2cccnc23)c1` (stereo not drawn) [Example 11, 3a-(4,6-Dimethyl-Pyridin-2-Yl)2,3a-Dihydro-1H-3-Thia-4,8a-Diaza-Cyclopenta a!Inden-8-One] displayed an IC50 of 3.9 µM. In other words, the single-digit micromolar range.

`Cc1ccnc(C23SCCN2C(=O)c2cccnc23)c1` (stereo not drawn) [Example 8, 3a-(4-Methyl-Pyridin-2-Yl)-2,3a-Dihydro-1H-3-Thia-4,8a-Diaza-Cyclopenta a!I nden-8-One] registered an IC50 of 4.6 µM.

In the case of `O=C1c2ccncc2C2(c3ccccc3)SCCN12` (stereo not drawn) [Example 7, 3a-Phenyl-2,3a-Dihydro-1H-3-Thia-5,8a-Diaza-Cyclopenta a!Inden-8-One], the half-inhibitory concentration (IC50) is 17 µM.

Regarding `Cc1cc(C)cc(C23SCCN2C(=O)c2nccnc23)c1` (stereo not drawn) [Example 5, 3a-(3,5-Dimethyl-Phenyl)-2,3a-Dihydro-1H-3-Thia-4,7,8a-Triaza-Cyclopenta a! Inden-8-One], 40 µM corresponded to half-maximal inhibition (IC50).

`Cc1cccc(C23SCCN2C(=O)c2cccnc23)c1` (stereo not drawn) [Example 13, 3a-m-Tolyl-2,3a-Dihydro-1H-3-Thia-4,8a-Diaza-Cyclopenta a!Inden-8-One]: half-maximal inhibition (IC50) was put at 4 µM. Compared with the last compound, the IC50 is about 10-fold lower.

For `O=C1c2cccnc2C2(c3ccccn3)SCCN12` (stereo not drawn) [Example 9, 3a-Pyridin-2-Yl-2,3a-Dihydro-1H-3-Thia-4,8a-Diaza-Cyclopenta a!Inden-8-One], the IC50 stood at 23 µM.

Compound `O=C1c2cccnc2C2(c3ccccc3)SCCN12` (stereo not drawn) [Example 2, 3a-Phenyl-2,3a-Dihydro-1H-3-Thia-4,8a-Diaza-Cyclopenta a!Inden-8-One] displayed an IC50 of 3.3 µM.

`Cc1cccc(C23SCCN2C(=O)c2cccnc23)n1` (stereo not drawn) [Example 10, 3a-(6-Methyl-Pyridin-2-Yl)-2,3a-Dihydro-1H-3-Thia-4,8a-Diaza-Cyclopenta a!I nden-8-One] returned an IC50 of 6.6 µM.

System in the next series: not given
Test: not given
Conditions: treatment of AIDS; Hirsch, M. S. (1988); cited from earlier work.
Consider `Cc1cn([C@H]2C[C@H](N=[N+]=[N-])[C@@H](CO)O2)c(=O)[nH]c1=O` [AZT, 3'-azido-3'-deoxythymidine], for which the “therapeutic range (in words)” value is “very narrow therapeutic range”.

The values are drawn from US5512564A, “Tricyclic thiazole and oxazole derivatives and pharmaceutical agents containing them” (priority 1991, dated 1996).
